What follows are molecules tested against Beta-galactosidase (Escherichia coli, UniProt Q8VNN2) (assay: beta-galactosidase enzyme inhibitors and activators, dose response, artefact control for CCR6 antagonist project, biochemical, E. coli enzyme, set 3 (AID 504712)).
Beta-galactosidase, sequence (Q8VNN2 whole entry): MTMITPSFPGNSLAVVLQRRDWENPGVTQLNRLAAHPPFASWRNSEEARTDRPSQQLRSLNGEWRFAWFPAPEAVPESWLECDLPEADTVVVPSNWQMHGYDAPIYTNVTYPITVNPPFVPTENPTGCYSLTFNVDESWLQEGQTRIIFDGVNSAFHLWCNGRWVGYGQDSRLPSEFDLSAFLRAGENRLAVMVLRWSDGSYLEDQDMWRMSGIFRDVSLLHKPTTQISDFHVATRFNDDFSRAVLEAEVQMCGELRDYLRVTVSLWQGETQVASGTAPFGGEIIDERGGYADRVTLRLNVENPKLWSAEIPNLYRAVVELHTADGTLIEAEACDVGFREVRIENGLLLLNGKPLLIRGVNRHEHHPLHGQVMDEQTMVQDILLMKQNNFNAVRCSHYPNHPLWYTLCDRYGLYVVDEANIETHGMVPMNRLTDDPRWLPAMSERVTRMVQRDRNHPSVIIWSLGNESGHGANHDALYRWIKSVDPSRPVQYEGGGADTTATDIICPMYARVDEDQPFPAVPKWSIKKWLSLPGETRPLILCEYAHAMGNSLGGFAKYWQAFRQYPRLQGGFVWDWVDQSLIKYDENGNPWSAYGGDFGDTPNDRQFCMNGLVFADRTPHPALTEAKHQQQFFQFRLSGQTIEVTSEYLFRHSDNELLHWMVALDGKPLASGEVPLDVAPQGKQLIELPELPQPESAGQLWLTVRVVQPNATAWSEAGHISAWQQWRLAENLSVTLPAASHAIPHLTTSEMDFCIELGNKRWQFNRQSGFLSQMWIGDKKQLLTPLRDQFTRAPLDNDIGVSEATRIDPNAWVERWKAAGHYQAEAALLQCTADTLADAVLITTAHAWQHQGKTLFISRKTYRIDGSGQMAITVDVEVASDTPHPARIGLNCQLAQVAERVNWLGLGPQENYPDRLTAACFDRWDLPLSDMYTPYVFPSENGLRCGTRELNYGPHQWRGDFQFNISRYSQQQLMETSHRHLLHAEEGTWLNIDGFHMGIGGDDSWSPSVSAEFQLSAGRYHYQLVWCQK

SMILES | IC50 [µM]
CC(NO)C(=O)C(=CN1CCCCC1)CN1CCCCC1 (stereo not drawn) | > 66.6
CCOC1=CC(=Cc2c(-c3ccccc3)[nH]n(-c3nc(-c4ccc(Br)cc4)cs3)c2=O)C=CC1=O | > 66.6
C=c1c(O)c(O)cc2c1=CC=C1[C@@]2(C)CC[C@@]2(C)[C@@H]3C[C@](C)(C(=O)O)CC[C@]3(C)CC[C@]12C | > 66.6
Cc1ccc2nc(-n3c(O)c[nH]c3=S)sc2c1 | > 66.6
Oc1cc(Sc2nnnn2-c2ccccc2)c(O)n1-c1cccc(Cl)c1 | > 66.6
O=C1C=CC([N+](=O)[O-])=CC1CN=Nc1nnn[nH]1 (stereo not drawn) | > 66.6
Cc1cc(C)nc(NNC=C2C(=O)CC(c3ccc(F)cc3)CC2=O)n1 (stereo not drawn) | > 66.6
CCOc1ccc(CN=Nc2ccc(S(=O)(=O)Nc3ccccc3C(=O)O)cc2[N+](=O)[O-])cc1 | > 66.6
Cc1ccccc1-n1c(O)cc(Sc2nnc(-c3ccccc3)o2)c1O [1-(2-methylphenyl)-3-[(5-phenyl-1,3,4-oxadiazol-2-yl)sulfanyl]pyrrolidine-2,5-dione] | > 66.6
Cc1cc(C)cc(-n2c(O)cc(Sc3nnnn3-c3ccccc3)c2O)c1 [1-(3,5-dimethylphenyl)-3-(1-phenyltetrazol-5-yl)sulfanylpyrrolidine-2,5-dione] | > 66.6
COc1ccc(-n2c(O)cc(Sc3nnc(-c4ccccc4)o3)c2O)cc1 [1-(4-methoxyphenyl)-3-[(5-phenyl-1,3,4-oxadiazol-2-yl)thio]pyrrolidine-2,5-dione] | > 66.6
O=C1Nc2ccc([N+](=O)[O-])cc2/C1=N/NC(=O)c1cc(-c2ccccc2Cl)nc2ccccc12 [2-(2-chlorophenyl)-N'-(2-keto-5-nitro-indol-3-yl)cinchoninohydrazide] | > 66.6
Cc1c(NN=C2C(=O)CC(C)(C)CC2=O)c(=O)n(-c2ccccc2)n1C [2-[(1,5-dimethyl-3-oxidanylidene-2-phenyl-pyrazol-4-yl)hydrazinylidene]-5,5-dimethyl-cyclohexane-1,3-dione] | > 66.6
C=CCOc1ccc(CN=Nc2ccc(S(=O)(=O)Nc3ccccc3C(=O)O)cc2[N+](=O)[O-])cc1OC [2-[[4-[2-[(3-methoxy-4-prop-2-enoxy-phenyl)methylidene]hydrazinyl]-3-nitro-phenyl]sulfonylamino]benzoic acid] | > 66.6
COC1=CC=CC(CN=Nc2nc(Nc3ccc([N+](=O)[O-])cc3)nc(N3CCCC3)n2)C1=O (stereo not drawn) [2-hydroxy-3-methoxybenzaldehyde {4-[(4-nitrophenyl)amino]-6-pyrrolidin-1-yl-1,3,5-triazin-2-yl}hydrazone] | > 66.6
Oc1cc(Sc2nnnn2C2CCCCC2)c(O)n1-c1ccccc1 [3-[(1-cyclohexyl-1,2,3,4-tetrazol-5-yl)sulfanyl]-1-phenyl-pyrrolidine-2,5-dione] | > 66.6
Oc1ccccc1-c1nnc(Sc2cc(O)n(-c3ccccc3)c2O)o1 [3-[[(2Z)-2-(6-oxo-1-cyclohexa-2,4-dienylidene)-3H-1,3,4-oxadiazol-5-yl]thio]-1-phenylpyrrolidine-2,5-dione] | > 66.6
O=Nc1c(C2C(=O)Nc3cc(Br)ccc32)[nH]c2ccccc12 (stereo not drawn) [6-bromoindirubin-3-oxime] | 40.8
O=C1C([N+](=O)[O-])=CC=CC1CN=Nc1ccc2ccccc2n1 (stereo not drawn) [(6E)-2-nitro-6-[(2-quinolin-2-ylhydrazinyl)methylidene]cyclohexa-2,4-dien-1-one] | > 66.6
COc1cccc(CN=Nc2nc(Nc3ccccc3)nc(-n3nc(C)cc3C)n2)c1O [(6E)-6-[[2-[4-(3,5-dimethylpyrazol-1-yl)-6-phenylazanyl-1,3,5-triazin-2-yl]hydrazinyl]methylidene]-2-methoxy-cyclohexa-2,4-dien-1-one] | > 66.6
CN(C)c1nc(N=NCc2ccccc2O)nc(Nc2ccc(F)cc2)n1 [(6E)-6-[[2-[4-(dimethylamino)-6-(4-fluoroanilino)-1,3,5-triazin-2-yl]hydrazinyl]methylidene]cyclohexa-2,4-dien-1-one] | > 66.6
CC(N=Nc1ccc2ccccc2n1)c1ccccc1O (stereo not drawn) [(6Z)-6-[1-[N'-(2-quinolyl)hydrazino]ethylidene]cyclohexa-2,4-dien-1-one] | > 66.6

SMILES | IC50 [µM]
O=C1C([N+](=O)[O-])=CC(Cl)=CC1CN=Nc1ccccn1 (stereo not drawn) [MLS000539830] | > 66.6
O=C1C=CC([N+](=O)[O-])=CC1CN=Nc1ccccn1 (stereo not drawn) [MLS000585015] | > 66.6
O=C(NN=CC1C=C([N+](=O)[O-])C=CC1=O)Nc1ccccc1 (stereo not drawn) [MLS000713965] | > 66.6
O=C1C(O)=CC=CC1CN=Nc1ccc([N+](=O)[O-])cc1 (stereo not drawn) [MLS001207776] | > 66.6
Oc1c(Cl)c(N=CCc2ccccc2)c(O)c2ccccc12 [MLS002608293] | > 66.6
O=C1C=CC=CC1CN=Nc1ccc([N+](=O)[O-])cn1 (stereo not drawn) [MLS002608402] | 46
C/C=C(\C)C(=O)OC1[C@H](OC(C)=O)C2(CO)C(CC1(C)C)C1=CCC3C4(C)CCC(O[C@@H]5O[C@H](C(=O)O)[C@@H](O[C@@H]6O[C@H](CO)[C@@H](O)[C@H](O)[C@H]6O)[C@H](O)[C@H]5O[C@H]5O[C@H](CO)[C@@H](O)[C@H](O)[C@H]5O)[C@](C)(CO)C4CCC3(C)[C@]1(C)C[C@H]2O (stereo partly drawn) [MLS002695979] | > 66.6
C=CCSC(N)=NN=CC1C=C(Br)C=C([N+](=O)[O-])C1=O (stereo not drawn) [N''-[[(E)-(3-bromo-5-nitro-6-oxo-1-cyclohexa-2,4-dienylidene)methyl]amino]carbamimidothioic acid prop-2-enyl ester] | > 66.6
CC1=NN(c2ccccc2)C(=O)/C1=C/NN1C(=O)c2ccc3c4c(ccc(c24)C1=O)CC3 [SMR000171439] | > 66.6
CN1C(=O)/C(=C2/C(=O)Nc3ccccc32)NC1=S [SMR000198608] | > 66.6
O=C1C(/C=N/c2ccc(N3CCOCC3)cc2)=CC(Cc2ccccc2)C=C1[N+](=O)[O-] (stereo not drawn) [SMR000231104] | > 66.6
CCOc1ccc(-n2c(O)cc(Sc3nnnn3-c3ccccc3)c2O)cc1 [SMR000271658] | > 66.6
Cc1cc2nc(-n3c(O)c[nH]c3=S)sc2cc1C [SMR000272190] | > 66.6
CCCC1CCC(=NNC(=S)NCCc2ccccc2)CC1 (stereo not drawn) [SMR000347544] | > 66.6
CC(C)(C)C1CCC(=NNC(=S)NCc2ccccc2)CC1 (stereo not drawn) [SMR000377499] | > 66.6
COc1ccc(-n2c(O)c(CN=Nc3nc(C)cc(C)n3)c3ccccc3c2=O)cc1OC [SMR000385482] | > 66.6
Cc1cc(N=NCc2ccc(F)cc2)nc(-n2nc(C)cc2C)n1 [SMR000426945] | > 66.6
CN1C(=O)C(C2CC(c3ccc(Cl)cc3)N=N2)C(=O)N(C)C1=O (stereo not drawn) [SMR000439471] | > 66.6
O=C(O)c1ccc(N=NC=CCc2ccc([N+](=O)[O-])o2)cc1 [SMR000590759] | 33
CCOc1ccc(CN=Nc2ccc(S(=O)(=O)Nc3ccccc3C(=O)O)cc2[N+](=O)[O-])cc1OC [SMR001308940] | > 66.6
N#CC(=C1C=CC(N=O)C(Cl)=C1)c1ccc(Cl)cc1 (stereo not drawn) [SMR001570423] | > 66.6

— BindingDB's records for doi:10.7270/Q2NG4P4X (Burnham Center For Chemical Genomics, 2011)
